For one series, the target named is PDE9 (Homo sapiens (Human), UniProt O76083). The series is described as follows: PDE9-inhibiting activity (SPA enzyme assay). In kind it is biochemical. The note with it: IC50 values; cGMP 1 μM substrate, 30° C.; read-out: PDE9 inhibition. As to the method:
The PDE9-inhibiting activity was measured by the following method. That is, to a buffer solution containing tris(hydroxymethyl)aminomethane-hydrochloric acid (40 mM, pH 8.0), magnesium chloride (5 mM), and 2-mercaptoethanol (4 mM) were added cGMP (1 μM) and ^3H-cGMP (0.33 μCi/ml) to give a substrate buffer solution. A test substance solution and an enzyme solution which had been adjusted to an optimal concentration were added thereto to perform a reaction at 30° C. The enzyme reaction was stopped by the addition of Scintillation Proximity Assay (SPA) Beads (Perkin Elmer, USA) containing 5 mM 3-isobutyl-1-methylxanthine (IBMX). For the enzyme activity, the amount of 5′-GMP, which is a reaction degradation product bound to SPA beads, was measured with a TopCount microplate reader (Hewlett Packard, USA). The inhibitory rate was calculated by taking the radioactivity of the control containing no test substance as (A), taking the radioactivity of the blank containing no enzyme as (B), and taking the radioactivity of the test substance as (C), and using the following equation.

The subject of series [1] is urethra relaxation response. Briefly: Simultaneous measurement model for rat bladder contraction/urethra relaxation responses. In kind it is in vivo. The note with it: female SD rat, increase relative to the solvent administration group, read-out: Ratio with increased urethra relaxation time during voiding (vs vehicle) (%). As to the method:
Simultaneous measurement of the bladder contraction and urethra relaxation responses using a rat was carried out with a partial modification of a method in Wibberley et al. (Wibberley, A., et al., Br. J. Pharmacol., 136: pp. 399-414 (2002)). That is, a female Sprague-Dawley (SD) rat (Charles River Laboratories Japan, Inc.) was anesthetized with urethane, and the bladder was exposed by a midline incision in the lower abdomen. A double lumen cannula (a cannula having a dual structure by PE190 and PE50) from the bladder apex was inserted into the bladder, and the bladder apex and the cannula were fixed by sutures at a point where the tip reached the proximal urethra. While infusing physiological saline into the urethra through the outer cannula, the urethral inner pressure was measured by a pressure transducer through the inner cannula with a saline solution infused into the urethra through the outer cannula. On the other hand, a single cannula (PESO) was inserted into the bladder from the bladder apex and placed therein. The inner pressure of the bladder was measured through this cannula. After a postoperative stabilization period had passed, physiological saline was infused into the bladder through the cannula of the bladder apex to cause a bladder contraction reaction, and thus cause a urethra relaxation response accompanying the bladder contraction reflex. The test substance was administered intravenously or intraduodenally.

Structures can show the parent of a compound that is named as a salt.

PDE9, sequence (O76083 whole entry): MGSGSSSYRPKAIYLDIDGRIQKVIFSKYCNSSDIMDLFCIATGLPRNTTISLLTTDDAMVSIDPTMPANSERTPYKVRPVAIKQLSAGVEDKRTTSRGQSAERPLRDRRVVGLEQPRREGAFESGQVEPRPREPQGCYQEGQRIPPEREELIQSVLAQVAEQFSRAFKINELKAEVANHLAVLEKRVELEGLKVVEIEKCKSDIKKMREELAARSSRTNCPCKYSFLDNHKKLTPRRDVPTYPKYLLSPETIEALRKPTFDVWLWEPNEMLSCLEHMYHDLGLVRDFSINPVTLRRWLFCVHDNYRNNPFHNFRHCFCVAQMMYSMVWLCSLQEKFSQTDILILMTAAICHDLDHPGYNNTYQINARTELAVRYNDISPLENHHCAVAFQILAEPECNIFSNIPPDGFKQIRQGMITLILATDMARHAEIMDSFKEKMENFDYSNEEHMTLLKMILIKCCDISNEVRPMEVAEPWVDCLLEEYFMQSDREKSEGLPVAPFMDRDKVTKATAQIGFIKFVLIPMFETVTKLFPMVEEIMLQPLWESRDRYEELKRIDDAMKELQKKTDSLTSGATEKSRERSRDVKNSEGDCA

For `O=C(c1ccc2c(c1)[nH]c(=O)c1cnn(C3CCOCC3)c12)N1CCOC(c2ccccc2F)C1` (centres unmarked) [Example 20], the melting point (usually the temperature, or range, at which the solid turns liquid) was 174 to 176 °C.

In the case of `Cc1nn(C2CCCC2)c2c1c(=O)[nH]c1cc(C(=O)N3CCc4cc(F)ccc43)ccc12` [Example 18], the melting point lay in the range of 321 to 323 °C.

`COCC1CCN(C(=O)c2cc3c(cc2C)[nH]c(=O)c2cnn(C4CCOCC4)c23)CC1.Cl` [Example 28] yielded a melting point of 253 to 255 °C. For the same compound, on PDE9, the IC50 turned out to be 9.1 nM.

In turn, `COCCCCN1CCN(C(=O)c2cc3c(cc2C)[nH]c(=O)c2cnn(CC4CCC4)c23)CC1` [Example 90] registered a melting point of 178 to 180 °C.

In the case of `COCCC1CCN(C(=O)c2cc3c(cc2C)[nH]c(=O)c2cnn(C4CCOCC4)c23)CC1` [Example 66], the melting point fell in the range of 241 to 242 °C. The IC50 on PDE9 turned out to be 4.3 nM.

As to `COCCCN1CCN(C(=O)c2cc3c(cc2C)[nH]c(=O)c2cnn(CC4CCC4)c23)CC1` [Example 97], the melting point fell in the range of 186 to 188 °C.

The compound `COc1cc2c(cn1)N(C(=O)c1ccc3c(c1)[nH]c(=O)c1cnn(C4CCOCC4)c13)CC2` [Example 15] came in with a melting point of 337 to 340 °C.

Regarding `CCOCC1CN(C(=O)c2cc3c(cc2C)[nH]c(=O)c2cnn(C4CCOCC4)c23)C1` [Example 86], the melting point is 226 to 228 °C. In addition, the IC50 at PDE9 was found to be 3.3 nM.

As for `COCCN1CCN(C(=O)c2cc3c(cc2C)[nH]c(=O)c2cnn(C4CCOCC4)c23)C[C@@H]1c1ccccc1` [Example 47], the melting point lay in the range of 218 to 220 °C.

As to `O=C(c1ccc2c(c1)[nH]c(=O)c1cnn(C3CCOCC3)c12)N1CCOC(c2ccc(F)cc2)C1` (centres unmarked) [Example 14], the melting point was 293 to 296 °C. In addition, at PDE9, the IC50 stood at 81 nM.

In turn, `Cc1cc2[nH]c(=O)c3cnn(C4CCCC4)c3c2cc1C(=O)N1CCN(C2CCOCC2)CC1` [Example 58] displayed a melting point of 263 to 265 °C.

The compound `Cc1cc2[nH]c(=O)c3cnn([C@H]4CCOC4)c3c2cc1C(=O)N1CCC(OC2CC2)CC1` [Example 218] had a melting point of 197 to 198 °C. For the same compound, at PDE9, the IC50 turned out to be 17 nM.

Regarding `CN1CCN(C(=O)c2ccc3c(c2)[nH]c(=O)c2cnn(C4CCOCC4)c23)CC1c1ccccc1` (centres unmarked) [Example 13], the melting point was in the range of 183 to 186 °C. Further, the IC50 at PDE9 came out at 85 nM.

Take `COCC(F)(F)CN1CCN(C(=O)c2cc3c(cc2C)[nH]c(=O)c2cnn(C4CCOCC4)c23)CC1` [Example 133]: the melting point lay within 212 to 213 °C. Further, on PDE9, the IC50 worked out at 8.3 nM.

`Cc1cc2[nH]c(=O)c3cnn(C4CCOCC4)c3c2cc1C(=O)N1CCN(CCCOC(C)C)CC1` [Example 64] displayed a melting point of 122 to 124 °C.

As for `CCN1CCN(C(=O)c2cc3c(cc2C)[nH]c(=O)c2cnn(C4CCOCC4)c23)CC1c1cccnc1` (centres unmarked) [Example 91], the melting point lay in the range of 272 to 274 °C.

Take `CCOC1CCN(C(=O)c2cc3c(cc2C)[nH]c(=O)c2cnn(C4CCOCC4)c23)CC1` [Example 40]: the response vs control in vivo at 1 mg/kg in series [1] is 138%. Besides, the IC50 on PDE9 worked out at 8.9 nM.

`O=C(c1ccc2c(c1)[nH]c(=O)c1cnn(C3CCOCC3)c12)N1CCCC(c2ccccc2)C1` (centres unmarked) [Example 11]: the melting point lay in the range of 298 to 301 °C.

With `Cc1cc2[nH]c(=O)c3cnn(C4CCOCC4)c3c2cc1C(=O)N1CCN(CCCOC(C)(C)C)CC1` [Example 77], the melting point lay in the range of 238 to 240 °C.

Regarding `Cc1cc2[nH]c(=O)c3cnn(C4CCOCC4)c3c2cc1C(=O)N1CCN(C)C(c2ccccc2)C1` (centres unmarked) [Example 21], the melting point was in the range of 253 to 256 °C.

In turn, `Cc1cc2[nH]c(=O)c3cnn(C4CCOCC4)c3c2cc1C(=O)N1CCC2(CCN(Cc3ccccc3)CC2)CC1` [Example 16] returned a melting point of 221 to 224 °C. Also, on PDE9, the IC50 came to 9.1 nM.

For the compound `O=C(c1ccc2c(c1)[nH]c(=O)c1cnn(C3CCOCC3)c12)N1Cc2cccc(F)c2C1` [Example 19], the melting point was 312 to 318 °C (dec.).

With `Cc1cc2[nH]c(=O)c3cnn(C4CCOCC4)c3c2cc1C(=O)N1CCN(Cc2cccnc2)CC1` (as salt: hydrochloride) [Example 2, 7-methyl-8-{[4-(pyridin-3-ylmethyl)piperazin-1-yl]carbonyl}-1-(tetrahydro-2H-pyran-4-yl)-1,5-dihydro-4H-pyrazolo[4,3-c]quinolin-4-one dihydrochloride], the melting point fell in the range of 259 to 263 °C.

As to `COCCCN1CCN(C(=O)c2cc3c(cc2C)[nH]c(=O)c2cnn(C4CCC4)c23)C[C@@H]1C` [Example 179], the IC50 at PDE9 turned out to be 6.8 nM.

In the case of `COCCCCN1CCN(C(=O)c2cc3c(cc2C)[nH]c(=O)c2cnn(CC4CC4)c23)CC1.Cl` [Example 103], the melting point was in the range of 207 to 208 °C. Moreover, on PDE9, the IC50 stood at 13 nM.

Turning to `Cc1cc2[nH]c(=O)c3cnn(C4CCOCC4)c3c2cc1C(=O)N1CCN(C)C(c2cccnc2)C1` (centres unmarked) [Example 49], the melting point is 255 to 257 °C. The IC50 on PDE9 was found to be 3.9 nM.

In the case of `CCOCC1CCN(C(=O)c2cc3c(cc2C)[nH]c(=O)c2cnn(C4CCOCC4)c23)CC1` [Example 56], the response vs control in vivo at 1 mg/kg in series [1] is 158%. For the same compound, on PDE9, the IC50 worked out at 4.4 nM.

Regarding `Cc1cc2[nH]c(=O)c3cnn([C@H]4CCOC4)c3c2cc1C(=O)N1CCC(OCC2CC2)CC1` [Example 198], the IC50 on PDE9 was 3.2 nM.

`Cc1cc2[nH]c(=O)c3cnn(C4CCOCC4)c3c2cc1C(=O)N1CCOC(c2cccnc2)C1` (centres unmarked) [Example 48] gave a melting point of 266 to 268 °C.

In turn, `Cc1cc2[nH]c(=O)c3cnn(C4CCOCC4)c3c2cc1C(=O)N1CCC(COC2CC2)CC1` [Example 217] yielded a melting point of 210 to 211 °C. Besides, the IC50 on PDE9 came out at 4.4 nM.

Consider `Cc1cc2[nH]c(=O)c3cnn(C4CCC4)c3c2cc1C(=O)N1CCN(CC2CCOCC2)CC1` [Example 55], for which the response vs control in vivo at 1 mg/kg in series [1] turned out to be 166%. Moreover, at PDE9, the IC50 came out at 15 nM.

`Cc1cc2[nH]c(=O)c3cnn(C4CCOCC4)c3c2cc1C(=O)N1CCN(CCCc2cccnc2)CC1` [Example 57]: the melting point lay in the range of 254 to 256 °C.

Regarding `CCc1cc2[nH]c(=O)c3cnn(C4CCOCC4)c3c2cc1C(=O)N1CCN(CCCCOC)[C@H](C)C1` [Example 129], on PDE9, the IC50 was 1.1 nM.

For `Cc1cc2[nH]c(=O)c3cnn(C4CCOCC4)c3c2cc1C(=O)N1CCN(c2cnccn2)CC1` [Example 50], at PDE9, the IC50 is 7.5 nM.

Regarding `O=C(c1ccc2c(c1)[nH]c(=O)c1cnn(C3CCOCC3)c12)N1CCc2cc(Cl)ccc21` [Example 12], the melting point lay in the range of 341 to 343 °C. On PDE9, the IC50 was 8.6 nM.

As to `CCOCCCCN1CCN(C(=O)c2cc3c(cc2C)[nH]c(=O)c2cnn([C@H]4CCOC4)c23)CC1` [Example 660], at PDE9, the IC50 was 28 nM.

Take `CCCOC1CCN(C(=O)c2cc3c(cc2C)[nH]c(=O)c2cnn([C@H]4CCOC4)c23)CC1` [Example 199]: the IC50 at PDE9 worked out at 4.7 nM.

In the case of `Cc1cc2[nH]c(=O)c3cnn([C@H]4CCOC4)c3c2cc1C(=O)N1CCN(CCCC(F)(F)F)CC1` [Example 200], the IC50 at PDE9 was 9 nM.

For `CCOCCCN1CCN(C(=O)c2cc3c(cc2C)[nH]c(=O)c2cnn(C4CCOCC4)c23)CC1` [Example 63], the melting point is 217 to 219 °C. In addition, the IC50 at PDE9 was determined as 8.4 nM.

On to `O=C(c1ccc2c(c1)[nH]c(=O)c1cnn(C3CCCC3)c12)N1CCc2cc(Cl)ccc21` [Example 1, 7-[(5-chloro-2,3-dihydro-1H-indol-1-yl)carbonyl]-1-cyclopentyl-1,5-dihydro-4H-pyrazolo[4,3-c]quinolin-4-one], for which the melting point fell in the range of 291 to 294 °C. Further, at PDE9, the IC50 came out at 18 nM.

`Cc1cc2[nH]c(=O)c3cnn(C4CCOCC4)c3c2cc1C(=O)N1CCC(OCC(C)(F)F)CC1` [Example 176] registered a melting point of 210 to 211 °C. Besides, the IC50 at PDE9 is 8.4 nM.

`Cc1cc2[nH]c(=O)c3cnn(C4CCOCC4)c3c2cc1C(=O)N1CCN(c2ccccn2)CC1` [Example 17] registered a melting point of 272 to 275 °C. Besides, the IC50 at PDE9 is 2.1 nM.

With `COCCCCN1CCN(C(=O)c2cc3c(cc2C)[nH]c(=O)c2cnn(C4CCCC4)c23)CC1` [Example 67], the melting point was in the range of 234 to 236 °C.

For `Cc1cc2[nH]c(=O)c3cnn(C4CCOCC4)c3c2cc1C(=O)N1CCC(OC[C@@H](C)F)CC1` [Example 177], the melting point is 205 to 206 °C. Moreover, the IC50 at PDE9 was found to be 9.7 nM.

On to `Cc1cc2[nH]c(=O)c3cnn(C4CCOCC4)c3c2cc1C(=O)N1CCN(C2CCCC2)CC1` [Example 255], for which the melting point lay in the range of 228 to 230 °C.

The record behind these values is patent US8822448B2, “Pyrazoloquinoline compound” (Astellas Pharma Inc., priority 2010, dated 2014).
